Measured values: US12599590B2 (TriviumVet DAC, priority 2019, dated 2026)

Key:
[1] = typical gastric pH range; cited from earlier work
[2] = cited from earlier work
[3] = Feline repeat dose toxicokinetic study of oral enteric-coated formulations; assay type: in vivo; settings: whole blood, cats, oral enteric-coated formulation, Mean; for AUC(0-t): read-out: AUC0-72
Method: This represents a first-in-species repeat dose test toxicokinetic study in cats. Pharmacokinetic sampling was performed after the first and last doses.

[4] = Canine pharmacokinetics of enteric coated formulations at 0.15 mg/kg (T1) and 0.75 mg/kg (T5); assay type: in vivo; settings: dogs, oral enteric coated formulation; for AUC(0-inf) / AUC(0-t) / Cmax / Tmax / half-life: dog, blood, po
healthy dogs = settings: 0.05 or 0.1 mg/kg orally three times per week, 10 weeks; cited from earlier work
[5] = 0.15 mg/kg, 0.15 mg/kg three times a week, Day 26, whole blood
[6] = 0.15 mg/kg, 0.15 mg/kg, Day 0, whole blood
[7] = 0.45 mg/kg, 0.45 mg/kg three times a week, Day 26, whole blood
[8] = 0.45 mg/kg, 0.45 mg/kg, Day 0, whole blood
[9] = 0.75 mg/kg, 0.75 mg/kg three times a week, Day 26, whole blood
[10] = 0.75 mg/kg, 0.75 mg/kg, Day 0, whole blood
[11] = 0.15 mg/kg, T1 0.15 mg/kg, Arith. Mean
[12] = 0.15 mg/kg, T1 0.15 mg/kg, Median
[13] = 0.75 mg/kg, T5 0.75 mg/kg, Arith. Mean
[14] = 0.75 mg/kg, T5 0.75 mg/kg, Median

CO[C@H]1C[C@@H]2CC[C@@H](C)[C@@](O)(O2)C(=O)C(=O)N2CCCC[C@H]2C(=O)O[C@H]([C@H](C)C[C@@H]2CC[C@@H](O)[C@H](OC)C2)CC(=O)[C@H](C)/C=C(\C)[C@@H](O)[C@@H](OC)C(=O)[C@H](C)C[C@H](C)/C=C/C=C/C=C/1C [rapamycin]
acid stability [1]: rapidly degrades within the typical gastric pH range
solubility in water [2]: poorly soluble in water
Cmax [3, 5]: 2.26 ng/mL
AUC(0-t) [3, 5]: 54 ng·h/mL
Cmax [3, 6]: 2.85 ng/mL
Tmax [3, 6]: 4 h
AUC(0-t) [3, 6]: 41 ng·h/mL
Cmax [3, 7]: 6.98 ng/mL
Tmax [3, 7]: 2 h
AUC(0-t) [3, 7]: 182 ng·h/mL
Cmax [3, 8]: 4.4 ng/mL
AUC(0-t) [3, 8]: 99.5 ng·h/mL
Cmax [3, 9]: 8.07 ng/mL
Tmax [3, 9]: 2 h
AUC(0-t) [3, 9]: 248 ng·h/mL
Cmax [3, 10]: 7.56 ng/mL
Tmax [3, 10]: 2 h
AUC(0-t) [3, 10]: 135 ng·h/mL
AUC(0-inf) [4, 11]: 42.7 ng·h/mL
AUC(0-t) [4, 11]: 40.8 ng·h/mL
Cmax [4, 11]: 2.23 ng/mL
Tmax [4, 11]: 1.83 h
half-life [4, 11]: 16.4 h
AUC(0-inf) [4, 12]: 38.5 ng·h/mL
AUC(0-t) [4, 12]: 45.2 ng·h/mL
Cmax [4, 12]: 2.17 ng/mL
Tmax [4, 12]: 2 h
half-life [4, 12]: 13.6 h
AUC(0-inf) [4, 13]: 102 ng·h/mL
AUC(0-t) [4, 13]: 111 ng·h/mL
Cmax [4, 13]: 4.41 ng/mL
Tmax [4, 13]: 2.17 h
half-life [4, 13]: 20.2 h
AUC(0-inf) [4, 14]: 98.4 ng·h/mL
AUC(0-t) [4, 14]: 96.9 ng·h/mL
Cmax [4, 14]: 3.14 ng/mL
Tmax [4, 14]: 2 h
half-life [4, 14]: 20.5 h
kelim ([4]; T1 0.15 mg/kg, Arith. Mean): 0.0596 h⁻¹
kelim ([4]; T1 0.15 mg/kg, Median): 0.0627 h⁻¹
kelim ([4]; T5 0.75 mg/kg, Arith. Mean): 0.0357 h⁻¹
kelim ([4]; T5 0.75 mg/kg, Median): 0.0338 h⁻¹
clinical side effects and hematological changes (healthy dogs): did not cause significant clinical side effects or abnormal hematological changes
